From ChEMBL document CHEMBL1201862, “PubChem BioAssay data set” (2004)
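Step 1: Grow cells in 96-well plates. Step 2: Expose to compound for 48 hours at 5 concentrations. Step 3: Interpolate endpoints linearly; if unreached, use highest concentration. GI50: concentration for 50% inhibition of growth.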 Calls of active or inactive are those of the source. No stated cut-off is given here; in the data, active = GI50 up to about 1.1 µM and inactive = higher.

Tests used:
Assay in all cases: NCI-60 cell line screen, 48 h
MOLT-4 = tested on: MOLT-4
SK-OV-3 = tested on: SK-OV-3
SN12C = tested on: SN12C
NCI-H23 = tested on: NCI-H23
M14 = tested on: M14
OVCAR-3 = tested on: OVCAR-3
UACC-257 = tested on: UACC-257
RPMI-8226 = tested on: RPMI-8226
MDA-MB-435 = tested on: MDA-MB-435
SK-MEL-28 = tested on: SK-MEL-28
IGROV-1 = tested on: IGROV-1
NCI-H226 = tested on: NCI-H226
DU-145 = tested on: DU-145
SR = tested on: SR
TK-10 = tested on: TK-10
CAKI-1 = tested on: CAKI-1
MDA-N = tested on: MDA-N
HL-60 = tested on: HL-60
HCC 2998 = tested on: HCC 2998
SW-620 = tested on: SW-620

Structure (SMILES) | GI50 (MOLT-4) | GI50 (SK-OV-3) | GI50 (SN12C) | GI50 (NCI-H23) | GI50 (M14) | GI50 (OVCAR-3) | GI50 (UACC-257) | GI50 (RPMI-8226) | GI50 (MDA-MB-435) | GI50 (SK-MEL-28) | GI50 (IGROV-1) | GI50 (NCI-H226) | GI50 (DU-145) | GI50 (SR) | GI50 (TK-10) | GI50 (CAKI-1) | GI50 (MDA-N) | GI50 (HL-60) | GI50 (HCC 2998) | GI50 (SW-620)
O=c1c2ccccc2nc(N/N=C/c2ccc([N+](=O)[O-])cc2)n1-c1ccccc1 | 77.3 µM (inactive) | 18.7 µM (inactive) | 91 µM (inactive) | 61.1 µM (inactive) | 31.7 µM (inactive) | 31.3 µM (inactive) | 15.6 µM (inactive) | > 100 µM (inactive) | 42.4 µM (inactive) | 10.7 µM (inactive) | > 100 µM (inactive) | > 100 µM (inactive) | 26.9 µM (inactive) | > 100 µM (inactive) | 18 µM (inactive) | 21.6 µM (inactive) | 57.5 µM (inactive) | > 100 µM (inactive) | – | –
O=C1CC2(CCC(O)(c3ccc(Cl)cc3)C(C(=O)c3ccc(Cl)cc3)C2)C(=O)c2ccccc2N1 (centres undefined) | 2.12 µM (inactive) | 12.4 µM (inactive) | 5.68 µM (inactive) | 14.6 µM (inactive) | 18.2 µM (inactive) | > 100 µM (inactive) | 12.2 µM (inactive) | 18.6 µM (inactive) | > 29.9 µM (inactive) | 4.53 µM (inactive) | > 26.3 µM (inactive) | 12.7 µM (inactive) | 6.82 µM (inactive) | – | 9.86 µM (inactive) | 9.62 µM (inactive) | 15.2 µM (inactive) | 11 µM (inactive) | 35.5 µM (inactive) | 27.4 µM (inactive)
O=c1[nH]c(=O)n(C2CC(O)C(CO)O2)cc1/N=N/NCCc1ccccc1 (centres undefined) | > 100 µM (inactive) | > 100 µM (inactive) | > 100 µM (inactive) | > 100 µM (inactive) | > 100 µM (inactive) | > 100 µM (inactive) | > 100 µM (inactive) | > 100 µM (inactive) | > 100 µM (inactive) | > 100 µM (inactive) | > 100 µM (inactive) | > 100 µM (inactive) | > 100 µM (inactive) | > 100 µM (inactive) | > 100 µM (inactive) | > 100 µM (inactive) | > 100 µM (inactive) | > 100 µM (inactive) | – | –
N=C(N)N/N=C/c1cc(Cl)cc(Cl)c1O | 50.4 µM (inactive) | > 100 µM (inactive) | 49.3 µM (inactive) | 56.5 µM (inactive) | 54.5 µM (inactive) | 67.3 µM (inactive) | 45.3 µM (inactive) | 57.3 µM (inactive) | 53.5 µM (inactive) | 86.9 µM (inactive) | > 100 µM (inactive) | 46.6 µM (inactive) | 75 µM (inactive) | – | 69 µM (inactive) | 38.7 µM (inactive) | 71.1 µM (inactive) | 33.2 µM (inactive) | 15.8 µM (inactive) | 97.5 µM (inactive)
O=C(O)C1OC1(c1cccc(Cl)c1)c1ccccc1Cl (centres undefined) | 27.5 µM (inactive) | 22.5 µM (inactive) | 23 µM (inactive) | 20.8 µM (inactive) | 18.8 µM (inactive) | 16.1 µM (inactive) | 26.6 µM (inactive) | 31.1 µM (inactive) | 22.9 µM (inactive) | 22.1 µM (inactive) | 34.9 µM (inactive) | 38.2 µM (inactive) | 26.1 µM (inactive) | – | 31.5 µM (inactive) | 20.5 µM (inactive) | 23.6 µM (inactive) | 17.2 µM (inactive) | 25.9 µM (inactive) | 20.7 µM (inactive)
Cn1c(=O)c2c(nc3n2CC(C(=O)O)N3)n(C)c1=O (centres undefined) | 0.036 µM (active) | > 100 µM (inactive) | > 100 µM (inactive) | > 100 µM (inactive) | > 100 µM (inactive) | > 100 µM (inactive) | > 100 µM (inactive) | > 100 µM (inactive) | > 100 µM (inactive) | > 100 µM (inactive) | > 100 µM (inactive) | > 100 µM (inactive) | > 100 µM (inactive) | – | > 100 µM (inactive) | > 100 µM (inactive) | > 100 µM (inactive) | > 100 µM (inactive) | > 100 µM (inactive) | > 100 µM (inactive)
C1CSCCCSCCSCCCSC1 | > 100 µM (inactive) | > 100 µM (inactive) | > 100 µM (inactive) | > 100 µM (inactive) | > 100 µM (inactive) | – | > 100 µM (inactive) | > 100 µM (inactive) | > 100 µM (inactive) | > 100 µM (inactive) | > 100 µM (inactive) | > 100 µM (inactive) | > 100 µM (inactive) | – | > 100 µM (inactive) | > 100 µM (inactive) | > 100 µM (inactive) | – | > 100 µM (inactive) | > 100 µM (inactive)
